Results on two molecules are retold here after ChEMBL document CHEMBL4507295 (2021).

Data set [1] deals with D(2) dopamine receptor (Homo sapiens) (UniProt P14416). Particulars: Compound concentration 10.0 uM; call rule not given here.
For data set [2], the species on record is Homo sapiens. Put plainly: Estrogen ERbeta Eurofins-Panlabs radioligand binding assay. The conditions noted are these: Compound concentration 10.0 uM.
Data set [3] is filed under the species Homo sapiens. Put plainly: Protein Serine/Threonine Kinase, MAPK14 (p38α) Eurofins-Panlabs enzyme assay. Particulars: Compound concentration 10.0 uM. The arrangement: substrate with concentration 10 µg/mL Myelin Basic Protein (MBP), incubation time 60 min, incubation temperature 25 °C.
Data set [4] has as its target Epidermal growth factor receptor (Homo sapiens) (UniProt P00533). Put plainly: Inhibition of Epidermal Growth Factor (EGF) at 10 µM in the Eurofins-Panlabs radioligand binding assay (Eurofins_assay_225510). The conditions noted are these: Compound concentration 10.0 uM.
Data set [5] has as its target Polyunsaturated fatty acid lipoxygenase ALOX12 (Homo sapiens) (UniProt P18054). Description: Lipoxygenase 12-LO Eurofins-Panlabs enzyme assay. The arrangement: substrate with concentration. Particulars: Compound concentration 10.0 uM.
The target in data set [6] is Cannabinoid receptor 1 (Homo sapiens) (UniProt P21554). Put plainly: Cannabinoid CB1 Eurofins-Panlabs radioligand binding assay. The conditions noted are these: Compound concentration 10.0 uM.
The target of data set [7] is Glucocorticoid receptor (Homo sapiens) (UniProt P04150). Put plainly: Glucocorticoid Eurofins-Panlabs radioligand binding assay. The conditions noted are these: Compound concentration 10.0 uM.
Data set [8] concerns the target Peroxisome proliferator-activated receptor alpha (Homo sapiens) (UniProt Q07869). Put plainly: PPARalpha Eurofins-Panlabs radioligand binding assay. Particulars: Compound concentration 10.0 uM.
For data set [9], the target named is Protein kinase C alpha type (Homo sapiens, UniProt P17252). Put plainly: Inhibition of Protein Serine/Threonine Kinase, PRKCA (PKCα) at 10 µM in the Eurofins-Panlabs enzyme assay (Eurofins_assay_180010). Details: substrate with concentration Histone, incubation time 10 min, incubation temperature 25 °C.
Data set [10] addresses Polyunsaturated fatty acid 5-lipoxygenase (Homo sapiens) (UniProt P09917). Description: Lipoxygenase 5-LO Eurofins-Panlabs enzyme assay. Particulars: Compound concentration 10.0 uM.
Data set [11] has as its target voltage-gated sodium channel, site 2 (Rattus norvegicus, UniProt F1LQQ7+O08562+O88420+O88457+P04774+P04775+P08104+P15389+P15390+Q62968). Put plainly: Inhibition of Sodium Channel, Site 2 at 10 µM in the Eurofins-Panlabs radioligand binding assay (Eurofins_assay_279510). The data set is classed as protein assay. Details: ligand concentration 5 nM, non-specific ligand with concentration 100 µM Veratridine, incubation time 60 min, incubation temperature 37 °C. The conditions noted are these: male, Wistar, rat whole brain (except cerebellum) membranes, probe [3H] Batrachotoxinin (radioligand, 5 nM), compound concentration 10 uM.

Data set [12] deals with Muscarinic acetylcholine receptor M2 (Homo sapiens) (UniProt P08172). Particulars: Compound concentration 10.0 uM.
The target of data set [13] is Muscarinic acetylcholine receptor M3 (Homo sapiens) (UniProt P20309). Particulars: Compound concentration 10.0 uM.
For data set [14], the species on record is Rattus norvegicus. Description: Potassium Channel [SKCA] Eurofins-Panlabs radioligand binding assay. Details: ligand concentration 0.005 nM. The conditions noted are these: Compound concentration 10.0 uM.
In data set [15] the target is Cathepsin G (Homo sapiens) (UniProt P08311). Put plainly: Inhibition of Peptidase, CTSG (Cathepsin G) at 10 µM in the Eurofins-Panlabs enzyme assay (Eurofins_assay_112510). The arrangement: substrate with concentration. Particulars: Compound concentration 10.0 uM.
In data set [16] the target is Prostaglandin E2 receptor EP3 subtype (Homo sapiens) (UniProt P43115). Put plainly: Prostanoid EP3 Eurofins-Panlabs radioligand binding assay. The arrangement: ligand concentration 0.5 nM, non-specific ligand with concentration 10 µM Prostaglandin EŽ2 (PGE2), incubation time 60 min, incubation temperature 25 °C. Particulars: Compound concentration 10.0 uM.
For data set [17], the target named is Somatostatin receptor type 2 (Homo sapiens) (UniProt P30874). Description: Somatostatin sst2 Eurofins-Panlabs radioligand binding assay. Details: ligand concentration 0.1 nM. The conditions noted are these: Compound concentration 10.0 uM.
Data set [18] is filed under the species Rattus norvegicus. Put plainly: Inhibition of Glycine, Strychnine-Sensitive at 10 µM in the Eurofins-Panlabs radioligand binding assay (Eurofins_assay_239000). Particulars: Compound concentration 10.0 uM.
Data set [19] is filed under the species Rattus norvegicus. Description: Adrenergic α1, Non-selective Eurofins-Panlabs radioligand binding assay. It counts as protein assay. Particulars: Compound concentration 10.0 uM.
Data set [20] has as its target Alpha-2C adrenergic receptor (Homo sapiens) (UniProt P18825). Put plainly: Adrenergic alpha2C Eurofins-Panlabs radioligand binding assay. Details: ligand concentration 1 nM, non-specific ligand with concentration 10 µM WB-4101, incubation time 60 min, incubation temperature 25 °C. Particulars: Compound concentration 10.0 uM.
For another data set, the target named is Caspase-1 (Homo sapiens) (UniProt P29466). Put plainly: Inhibition of Peptidase, CASP1 (Caspase 1) at 10 µM in the Eurofins-Panlabs enzyme assay (Eurofins_assay_163000). The conditions noted are these: Compound concentration 10.0 uM.
For data set [21], the species on record is Rattus norvegicus. Put plainly: Testosterone Eurofins-Panlabs radioligand binding assay. The conditions noted are these: Compound concentration 10.0 uM. The arrangement: ligand concentration 1.5 nM.
Data set [22] deals with Nociceptin receptor (Homo sapiens) (UniProt P41146). Put plainly: Orphanin ORL1 Eurofins-Panlabs radioligand binding assay. Particulars: Compound concentration 10.0 uM.
The target in data set [23] is Adenosine receptor A3 (Homo sapiens) (UniProt P0DMS8). Particulars: Compound concentration 10.0 uM.
Data set [24] addresses Phosphodiesterase 3 (Homo sapiens) (UniProt Q14432+Q13370). Description: Inhibition of Phosphodiesterase PDE3 at compound concentration of 10.0 uM in the Eurofins-Panlabs enzyme assay (Eurofins_assay_152000). It counts as protein assay. Details: substrate with concentration 1.01 uM [3H] cAMP + cAMP, incubation time 20 min, incubation temperature 25 C. The conditions noted are these: Compound concentration […].

Data set [25] addresses Galanin receptor type 2 (Homo sapiens) (UniProt O43603). Description: Galanin GAL2 Eurofins-Panlabs radioligand binding assay. The arrangement: ligand concentration 0.02 nM. The conditions noted are these: Compound concentration 10.0 uM.
The species named for data set [26] is Homo sapiens. Description: Prostanoid, Thromboxane A2 (TP) Eurofins-Panlabs radioligand binding assay. The arrangement: ligand concentration 5 nM, non-specific ligand with concentration 1 µM SQ-29548, incubation time 30 min, incubation temperature 25 °C. The conditions noted are these: Compound concentration 10.0 uM.
In data set [27] the target is Prostaglandin D2 receptor (Homo sapiens) (UniProt Q13258). Description: Prostanoid DP Eurofins-Panlabs radioligand binding assay. The conditions noted are these: Compound concentration 10.0 uM.
For data set [28], the target named is ATP-sensitive inward rectifier potassium channel 11 (Cricetulus griseus) (UniProt A0A3L7HHE1). Put plainly: Inhibition of Potassium Channel [KATP] at 10 µM in the Eurofins-Panlabs radioligand binding assay (Eurofins_assay_265600). The conditions noted are these: Cricetinae; Compound concentration 10.0 uM.
In data set [29] the target is Insulin receptor (Homo sapiens) (UniProt P06213). Particulars: Rattus norvegicus; Compound concentration 10.0 uM.
Data set [30] has as its target Somatostatin receptor type 3 (Homo sapiens) (UniProt P32745). Description: Somatostatin sst3 Eurofins-Panlabs radioligand binding assay. The conditions noted are these: Compound concentration 10.0 uM.
The target of data set [31] is Histamine H3 receptor (Homo sapiens) (UniProt Q9Y5N1). Description: Histamine H3 Eurofins-Panlabs radioligand binding assay. Particulars: Compound concentration 10.0 uM.
The species entered for data set [32] is Homo sapiens. The conditions noted are these: Compound concentration 10.0 uM.
The target of data set [33] is Glutamate receptor ionotropic, kainate (Rattus norvegicus) (UniProt P22756+Q01812+P42260+P42264+Q63273). Description: Inhibition of Glutamate, Kainate at 10 µM in the Eurofins-Panlabs radioligand binding assay (Eurofins_assay_232700). Particulars: Compound concentration 10.0 uM.
Data set [34] deals with GABA-A receptor; anion channel (Rattus norvegicus) (UniProt O09028+P15431+P18506+P18508+P19969+P20236+P23574+P23576+P28471+P28473+P30191+P62813+P63079+P63138+Q91ZM7+Q9ES14). The conditions noted are these: Compound concentration 10.0 uM.
The target in data set [35] is Neuropeptide Y receptor type 1 (Homo sapiens) (UniProt P25929). Put plainly: Inhibition of Neuropeptide Y Y1 at 10 µM in the Eurofins-Panlabs radioligand binding assay (Eurofins_assay_257010). The conditions noted are these: Compound concentration 10.0 uM.
For data set [36], the target named is Vasopressin V1a receptor (Homo sapiens) (UniProt P37288). Put plainly: Vasopressin V1A Eurofins-Panlabs radioligand binding assay. Particulars: Compound concentration 10.0 uM. Details: ligand concentration 0.01 nM.
The target in data set [37] is Somatostatin receptor type 1 (Homo sapiens) (UniProt P30872). Description: Somatostatin sst1 Eurofins-Panlabs radioligand binding assay. Particulars: Compound concentration 10.0 uM. Details: ligand concentration 0.1 nM.
Data set [38] has as its target Melatonin receptor (Gallus gallus) (UniProt P49288+P51050+P49285). Description: Melatonin MT, Non-Selective Eurofins-Panlabs radioligand binding assay. The data set is classed as protein assay. The conditions noted are these: Compound concentration 10.0 uM.
The target of data set [39] is Voltage-dependent N-type calcium channel subunit alpha-1B (Homo sapiens) (UniProt Q00975). Put plainly: Inhibition of Calcium Channel N-Type at 10 µM in the Eurofins-Panlabs radioligand binding assay (Eurofins_assay_216000). The conditions noted are these: Rattus norvegicus; Compound concentration 10.0 uM.

Sequence of Muscarinic acetylcholine receptor M2 (Homo sapiens) (P08172 whole entry): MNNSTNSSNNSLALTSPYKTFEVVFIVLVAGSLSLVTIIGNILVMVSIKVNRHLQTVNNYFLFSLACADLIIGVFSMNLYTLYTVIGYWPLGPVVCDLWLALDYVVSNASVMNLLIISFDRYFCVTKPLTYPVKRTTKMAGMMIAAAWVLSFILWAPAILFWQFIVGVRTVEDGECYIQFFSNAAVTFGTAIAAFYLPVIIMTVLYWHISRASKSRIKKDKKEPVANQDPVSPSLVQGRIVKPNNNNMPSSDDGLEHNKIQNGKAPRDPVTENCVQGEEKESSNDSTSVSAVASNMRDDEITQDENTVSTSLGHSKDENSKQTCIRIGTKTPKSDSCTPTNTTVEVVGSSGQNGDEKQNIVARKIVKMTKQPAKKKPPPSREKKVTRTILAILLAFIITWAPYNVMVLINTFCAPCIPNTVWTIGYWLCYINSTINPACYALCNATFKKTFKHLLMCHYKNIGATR
Sequence of Polyunsaturated fatty acid 5-lipoxygenase (Homo sapiens) (P09917 whole entry): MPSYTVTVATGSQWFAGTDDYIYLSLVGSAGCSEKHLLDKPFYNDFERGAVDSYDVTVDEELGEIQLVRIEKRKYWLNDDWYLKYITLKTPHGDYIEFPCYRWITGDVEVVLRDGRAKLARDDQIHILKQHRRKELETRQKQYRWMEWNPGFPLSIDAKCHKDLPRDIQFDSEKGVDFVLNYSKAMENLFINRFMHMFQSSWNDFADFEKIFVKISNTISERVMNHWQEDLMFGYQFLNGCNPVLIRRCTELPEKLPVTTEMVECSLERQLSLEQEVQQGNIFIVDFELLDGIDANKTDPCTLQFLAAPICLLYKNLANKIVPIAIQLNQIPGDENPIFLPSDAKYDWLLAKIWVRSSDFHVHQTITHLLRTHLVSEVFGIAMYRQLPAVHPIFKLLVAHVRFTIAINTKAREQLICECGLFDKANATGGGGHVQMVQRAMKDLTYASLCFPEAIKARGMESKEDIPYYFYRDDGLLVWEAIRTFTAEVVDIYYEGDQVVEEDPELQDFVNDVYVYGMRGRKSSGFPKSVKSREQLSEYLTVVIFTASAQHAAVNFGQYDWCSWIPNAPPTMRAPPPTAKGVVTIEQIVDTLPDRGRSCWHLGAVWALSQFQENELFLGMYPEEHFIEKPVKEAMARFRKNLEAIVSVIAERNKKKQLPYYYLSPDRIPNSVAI
Sequence of Somatostatin receptor type 2 (Homo sapiens) (P30874 whole entry): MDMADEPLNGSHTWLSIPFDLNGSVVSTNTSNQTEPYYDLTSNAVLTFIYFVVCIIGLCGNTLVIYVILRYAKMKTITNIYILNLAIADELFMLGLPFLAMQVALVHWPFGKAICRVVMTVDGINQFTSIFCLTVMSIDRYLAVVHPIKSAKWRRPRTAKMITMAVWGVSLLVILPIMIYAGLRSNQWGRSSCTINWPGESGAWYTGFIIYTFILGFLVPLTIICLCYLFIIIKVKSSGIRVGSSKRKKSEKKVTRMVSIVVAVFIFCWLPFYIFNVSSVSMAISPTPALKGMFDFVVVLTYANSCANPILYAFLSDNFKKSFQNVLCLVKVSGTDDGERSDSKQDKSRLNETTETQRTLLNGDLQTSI
Sequence of Prostaglandin E2 receptor EP3 subtype (Homo sapiens) (P43115 whole entry): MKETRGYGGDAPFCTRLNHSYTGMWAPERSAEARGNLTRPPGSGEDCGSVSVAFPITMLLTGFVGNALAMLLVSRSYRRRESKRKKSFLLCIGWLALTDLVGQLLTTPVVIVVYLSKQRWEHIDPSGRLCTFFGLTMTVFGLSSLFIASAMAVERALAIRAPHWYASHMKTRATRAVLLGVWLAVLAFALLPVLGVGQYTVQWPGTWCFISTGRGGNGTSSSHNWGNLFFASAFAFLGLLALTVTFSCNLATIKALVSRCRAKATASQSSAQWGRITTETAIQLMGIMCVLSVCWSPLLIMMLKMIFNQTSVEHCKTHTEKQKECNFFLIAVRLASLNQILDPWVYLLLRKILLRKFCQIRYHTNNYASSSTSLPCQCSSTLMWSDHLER
Sequence of Alpha-2C adrenergic receptor (Homo sapiens) (P18825 whole entry): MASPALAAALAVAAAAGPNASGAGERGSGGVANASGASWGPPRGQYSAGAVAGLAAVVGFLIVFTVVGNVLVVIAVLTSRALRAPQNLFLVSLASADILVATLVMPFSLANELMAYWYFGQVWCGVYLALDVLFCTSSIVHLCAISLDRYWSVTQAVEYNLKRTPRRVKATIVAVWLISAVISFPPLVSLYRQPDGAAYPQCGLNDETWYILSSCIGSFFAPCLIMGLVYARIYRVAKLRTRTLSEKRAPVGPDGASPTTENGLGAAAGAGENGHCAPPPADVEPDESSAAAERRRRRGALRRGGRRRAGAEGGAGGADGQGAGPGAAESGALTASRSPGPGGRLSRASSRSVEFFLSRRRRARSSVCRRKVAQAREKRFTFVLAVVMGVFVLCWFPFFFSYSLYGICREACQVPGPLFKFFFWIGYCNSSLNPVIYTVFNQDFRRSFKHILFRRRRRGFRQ
Sequence of Epidermal growth factor receptor (Homo sapiens) (P00533 whole entry): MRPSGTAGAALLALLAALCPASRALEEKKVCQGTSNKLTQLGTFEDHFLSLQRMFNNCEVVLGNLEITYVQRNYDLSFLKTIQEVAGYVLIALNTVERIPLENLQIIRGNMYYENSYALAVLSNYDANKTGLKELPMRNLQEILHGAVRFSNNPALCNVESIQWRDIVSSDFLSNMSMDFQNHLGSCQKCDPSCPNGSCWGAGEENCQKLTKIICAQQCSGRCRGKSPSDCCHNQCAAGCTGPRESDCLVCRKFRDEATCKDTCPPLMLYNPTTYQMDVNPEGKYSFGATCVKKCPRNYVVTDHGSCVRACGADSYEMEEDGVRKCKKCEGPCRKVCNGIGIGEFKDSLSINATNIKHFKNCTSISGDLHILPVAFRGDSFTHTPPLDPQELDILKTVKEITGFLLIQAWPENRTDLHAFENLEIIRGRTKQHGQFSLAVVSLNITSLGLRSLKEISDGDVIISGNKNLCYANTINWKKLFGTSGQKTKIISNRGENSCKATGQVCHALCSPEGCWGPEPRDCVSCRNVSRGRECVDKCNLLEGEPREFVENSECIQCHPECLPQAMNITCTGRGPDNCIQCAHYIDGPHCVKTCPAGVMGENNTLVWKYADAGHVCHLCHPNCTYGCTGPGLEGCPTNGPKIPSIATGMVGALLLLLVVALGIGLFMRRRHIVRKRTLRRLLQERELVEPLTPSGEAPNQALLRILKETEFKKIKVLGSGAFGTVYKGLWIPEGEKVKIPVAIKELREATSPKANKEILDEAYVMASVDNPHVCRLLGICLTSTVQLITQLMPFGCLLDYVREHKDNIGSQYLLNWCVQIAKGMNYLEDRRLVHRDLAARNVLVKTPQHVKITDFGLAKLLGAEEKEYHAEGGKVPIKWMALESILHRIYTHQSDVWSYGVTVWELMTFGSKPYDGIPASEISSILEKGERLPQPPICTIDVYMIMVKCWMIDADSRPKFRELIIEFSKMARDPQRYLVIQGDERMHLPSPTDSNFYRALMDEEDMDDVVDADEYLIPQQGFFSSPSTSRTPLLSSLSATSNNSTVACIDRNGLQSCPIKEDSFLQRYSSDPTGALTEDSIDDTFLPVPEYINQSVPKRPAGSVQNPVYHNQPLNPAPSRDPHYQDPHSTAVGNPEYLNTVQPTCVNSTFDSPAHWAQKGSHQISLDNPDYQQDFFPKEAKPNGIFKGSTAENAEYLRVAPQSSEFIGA
Sequence of Polyunsaturated fatty acid lipoxygenase ALOX12 (Homo sapiens) (P18054 whole entry): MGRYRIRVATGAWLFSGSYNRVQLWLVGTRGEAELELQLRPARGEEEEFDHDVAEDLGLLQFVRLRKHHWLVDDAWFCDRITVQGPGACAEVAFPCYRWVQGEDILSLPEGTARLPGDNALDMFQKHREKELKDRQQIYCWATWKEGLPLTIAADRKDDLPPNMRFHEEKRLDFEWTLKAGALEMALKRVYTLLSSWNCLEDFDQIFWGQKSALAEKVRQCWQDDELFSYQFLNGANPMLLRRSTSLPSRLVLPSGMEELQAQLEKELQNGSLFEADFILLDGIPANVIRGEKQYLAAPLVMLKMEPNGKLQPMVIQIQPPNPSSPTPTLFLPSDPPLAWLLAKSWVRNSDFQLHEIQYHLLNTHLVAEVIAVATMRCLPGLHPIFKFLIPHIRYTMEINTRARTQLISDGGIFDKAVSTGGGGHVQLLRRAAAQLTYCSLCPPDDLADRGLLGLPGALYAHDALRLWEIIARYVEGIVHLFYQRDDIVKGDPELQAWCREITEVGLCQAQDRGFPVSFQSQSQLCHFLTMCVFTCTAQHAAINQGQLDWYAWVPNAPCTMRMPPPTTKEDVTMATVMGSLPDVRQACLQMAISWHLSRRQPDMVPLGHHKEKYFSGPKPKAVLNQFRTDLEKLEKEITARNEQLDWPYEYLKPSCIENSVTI
Sequence of Caspase-1 (Homo sapiens) (P29466 120-297 limits assumed): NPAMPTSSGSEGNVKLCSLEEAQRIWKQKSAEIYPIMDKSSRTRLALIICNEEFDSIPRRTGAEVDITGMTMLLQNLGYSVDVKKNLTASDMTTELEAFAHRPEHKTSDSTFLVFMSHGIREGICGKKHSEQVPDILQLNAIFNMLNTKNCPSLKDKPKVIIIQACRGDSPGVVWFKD
Sequence of Caspase-1 (Homo sapiens) (P29466 317-404 limits assumed): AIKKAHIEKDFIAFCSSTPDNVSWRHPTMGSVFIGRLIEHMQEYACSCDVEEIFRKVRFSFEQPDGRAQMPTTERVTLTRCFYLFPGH
Sequence of Cathepsin G (Homo sapiens) (P08311 whole entry): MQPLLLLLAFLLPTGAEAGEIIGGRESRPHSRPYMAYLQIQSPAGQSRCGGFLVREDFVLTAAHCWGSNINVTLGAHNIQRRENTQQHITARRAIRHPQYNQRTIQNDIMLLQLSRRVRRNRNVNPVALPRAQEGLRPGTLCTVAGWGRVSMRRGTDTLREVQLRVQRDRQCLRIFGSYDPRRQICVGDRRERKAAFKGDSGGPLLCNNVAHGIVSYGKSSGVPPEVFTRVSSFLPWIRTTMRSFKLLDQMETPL

One may read the inhibition as the relative decrease from the control value, in per cent. In the case of `N#CC1(c2ccccn2)CCN(Cc2cc(C(=O)N3CCCC3)c(=O)n3ccccc23)CC1`, the inhibition in [1] was -5.66%.

In general, IC50 refers to the point on the concentration scale where inhibition reaches its midpoint. A high value points to weaker potency. For the molecule `N#CC1(c2ccccn2)CCN(Cc2cc(C(=O)O)c(=O)n3ccccc23)CC1` [MSD-M1PAM], the inhibition was 8% in the data set listed under Homo sapiens [2]; -3% in the data set filed under Homo sapiens [3]; -7% in data set [4]; 13% in [5]; -3% in [6]; 4% in data set [7]. For the same molecule, the inhibition in [8] is 11%; in data set [9] (Compound concentration 0.1 uM), -9%; in data set [9] (Compound concentration 1.0 uM), -3%; in [9] (Compound concentration 10.0 uM), 11%; in [9] (Compound concentration 100.0 uM), 52%; in data set [10], -7%. For the same molecule, the inhibition in [12] is -8.07%; in data set [13] it was 3%; in the data set listed under Rattus norvegicus [14] it was -10%; in data set [15], 10%; in [16] it was 3%; in data set [17], 12%. The inhibition in the data set listed under Rattus norvegicus [18] was 33%; in the data set listed under Rattus norvegicus [19], -4%; in data set [20] it was 15%; at Caspase-1 (Homo sapiens), 7%; in the data set listed under Rattus norvegicus [21], -3%; in [22], 14%. Also, the inhibition is -3% in data set [23]; 1% in [24]; 4% in data set [25]; 21% in the data set filed under Homo sapiens [26]; 29% in data set [27]; 1% in [28]. The inhibition in data set [29] is 3%; in data set [30], 2%; in data set [31], -9%; in the data set listed under Homo sapiens [32], 0%; in data set [33], 7%; in data set [34] it was 18%. In addition, the inhibition in data set [35] was -1%; in data set [36] it was -5%; in [37], -3%; in data set [38] it was -6%; in data set [39], -3%. Moreover, the IC50 in data set [9] was determined as 91.5 µM. The inhibition at 60 min, 10 µM in data set [11] is given as 4% (not active).
